Two compounds from paper PMC3516885 (Chembiochem : a European journal of chemical biology, 2012) can be followed below.

Data set [1] can be described thus: Human serum stability assay. It counts as in vitro ADME. The conditions noted are these: for peptide remaining after 24 hours in human serum (in words): 0.9 mg/mL, buffered human serum, 37 deg. C; for remaining at 7 h, 0.9 mg/mL: male, human, human type-AB serum diluted 9:1 in phosphate-buffered saline.
The target in a further data set is Grb2-SH2 (Homo sapiens, UniProt P62993). It counts as binding. The conditions noted are these: 5 nM pYVNV ligand, 0.91 μM Grb2-SH2.

Positions of bridges follow the written chain, without caps; N, C: chain ends. Residues, ends and D or L forms follow the SMILES beside them. Bounds are passed on as bounds.

Sequence of Grb2-SH2 (P62993 60-152 limits assumed): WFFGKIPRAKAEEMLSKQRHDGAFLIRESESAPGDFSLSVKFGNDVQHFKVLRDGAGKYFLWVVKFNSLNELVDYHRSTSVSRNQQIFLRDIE

For `CSCC[C@@H]1NC(=O)CNC(=O)[C@H](C(C)C)NC(=O)[C@H](CC(N)=O)NC(=O)[C@@H]2CCCN2C(=O)[C@H](Cc2ccc(O)cc2)NC(=O)[C@H](CC(C)C)NC(=O)[C@H](CCC(=O)O)NC(=O)[C@@H](N)CSSC[C@@H](C(N)=O)NC(=O)[C@H](Cc2ccc(O)cc2)NC1=O` [G1-Pro] (H-CELYPNVGMYC-NH2; disulfide 1-11; N-terminus and C-terminus assumed), in data set [1], the “peptide remaining after 24 hours in human serum (in words)” value is on record as “no detectable amounts of peptide remaining” and the fraction remaining at 7 h, 0.9 mg/mL is < 30%. Moreover, the “inhibition of Grb2-SH2 in the competition assay (in words)” value at Grb2-SH2 is recorded as “little inhibitory activity”.
With `CSCC[C@@H]1NC(=O)CNC(=O)[C@H](C(C)C)NC(=O)[C@H](CC(N)=O)NC(=O)[C@H](CCC(=O)O)NC(=O)[C@H](Cc2ccc(O)cc2)NC(=O)[C@H](CC(C)C)NC(=O)[C@H](CCC(=O)O)NC(=O)[C@@H](N)CSSC[C@@H](C(N)=O)NC(=O)[C@H](Cc2ccc(O)cc2)NC1=O` [G1, reference compound] (H-CELYENVGMYC-NH2; disulfide 1-11; N-terminus and C-terminus assumed), in data set [1], the “peptide remaining after 24 hours in human serum (in words)” value is on record as “no detectable amounts of peptide remaining” and the share remaining at 7 h, 0.9 mg/mL was < 30%.

Broadly, the fraction remaining is the share of the starting amount still present when the sample was taken. A lower fraction remaining goes with a greater loss.
